Source: US9580439B2, “Inhibitors of focal adhesion kinase” (The Scripps Research Institute, priority 2007, dated 2017)

Target: FAK (411-686, activated by Src and repurified) (Homo sapiens, UniProt Q05397)
Assay: FAK Biochemical Assay (cell-free, HTRF)
Conditions: 10 μM ATP, read-out: 50% inhibitory concentrations (IC50) against focal adhesion kinase in the cell-free assay
Protocol: All experiments were performed in Greiner FIA black 384-well low volume plates.
A 5 μl mixture of a 200 nM Ulight-poly GT substrate (Perkin Elmer) and 10 μM ATP in Kinase buffer (50 mM Hepes pH 7.3, 10 mM MgCl2, 1 mM EGTA, 0.01% Tween-20, 2 mM dithriothreitol) was dispensed into the wells. […] of 90% DMSO/10% water containing the compounds to be tested was added to the wells. Kinase reaction was started by addition of 5 μl of 1 nM FAK (411-686, activated by Src and repurified) in Kinase buffer. After 50 min at RT the reaction was stopped with 5 μl of 40 mM EDTA in detection buffer (Perkin Elmer, Lance detection buffer) followed by a 5 μl addition of 8 nM LANCE Ei-W1024 anti-phosphotyrosine (PY20) antibody in detection buffer. After 1 h incubation at RT the plate was read on the Viewlux in HTRF mode.

FAK (411-686, activated by Src and repurified), sequence (Q05397 411-686, species assumed): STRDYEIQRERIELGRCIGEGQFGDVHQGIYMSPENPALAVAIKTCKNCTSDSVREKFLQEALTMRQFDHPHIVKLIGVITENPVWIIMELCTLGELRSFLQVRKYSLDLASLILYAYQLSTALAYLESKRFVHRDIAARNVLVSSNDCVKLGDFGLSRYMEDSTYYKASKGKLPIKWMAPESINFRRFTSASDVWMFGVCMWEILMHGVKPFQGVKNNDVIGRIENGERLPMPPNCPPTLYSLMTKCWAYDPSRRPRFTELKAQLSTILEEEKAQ

| IC50 [µM] | SMILES |
| --- | --- |
| > 10 | CNS(=O)(=O)c1ccccc1Nc1cc(Nc2ccccc2S(=O)(=O)NC)c(C(F)(F)F)cn1 [Compound 5] |
| > 10 | CN1Cc2cccc(Nc3cc(Nc4cccc5c4C(=O)N(C)C5)c(C(F)(F)F)cn3)c2C1=O [Compound 3, 7,7′-(5-(trifluoromethyl)pyridine-2,4-diyl)bis(azanediyl)bis(2-methylisoindolin-1-one)] |
